Consider 50 molecules from patent US11414431B2, “Substituted pyrazolo[1,5-a]pyrimidines as TYK2 inhibitors” (Nimbus Lakshmi, Inc., priority 2018, dated 2022).

A value given as a limit tells only on which side of the number the result lay.

One test deals with IL-12 induced STAT4 phosphorlyation mediated by TYK2/JAK2. The test is described as follows: IL-12 Induced pSTAT4 in Human PBMC. Particulars: 1.7 ng/mL IL-12 for 30 minutes. Type of test: cell-based. The essentials: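 pSTAT4 and total STAT4 quantified by MSD in lysates of cryopreserved human PBMC after 30-minute stimulation with 1.7 ng/mL IL-12 (final). Compound was added 1 hr beforehand at 37° C, 0.1% DMSO final.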
The term IC50 denotes the concentration at which inhibition is half-maximal. Turning to `CNc1cc(-c2cn([C@H]3CCOC[C@@H]3OC)c3ncccc23)nc2c(C(=O)N[C@H]3CC[C@@H]3OC)cnn12` [Compound I-663], the IC50 is under 0.1 µM. `CNc1cc(-c2cn([C@H]3CCOC[C@H]3OC)c3ncccc23)nc2c(C(=O)N[C@H]3CC[C@@H]3OC)cnn12` [Compound I-666] displayed an IC50 of under 0.1 µM. For the molecule `CNc1cc(-c2cn([C@@H]3CCOC[C@@H]3OC)c3ncccc23)nc2c(C(=O)NC3CC[C@@H]3OC)cnn12` (some centres unmarked) [Compound I-668], the IC50 is under 0.1 µM. In turn, `CNc1cc(-c2cn([C@@H]3CCOC[C@@H]3OC)c3ncccc23)nc2c(C(=O)N[C@H]3CC[C@@H]3OC)cnn12` [Compound I-669] registered an IC50 of under 0.1 µM. Molecule `CNc1cc(-c2cn([C@H]3CCC4(C3)OCCO4)c3ncccc23)nc2c(C(=O)NC3CC[C@@H]3OC)cnn12` (some centres unmarked) [Compound I-671] had an IC50 of under 0.1 µM. The molecule `CNc1cc(-c2cn([C@@H]3CCC4(C3)OCCO4)c3ncccc23)nc2c(C(=O)NC3CC[C@@H]3OC)cnn12` (some centres unmarked) [Compound I-672] showed an IC50 of under 0.1 µM. Still for that read-out and setting: for `CNc1cc(-c2cn(C3COC3)c3ncccc23)nc2c(C(=O)NC3CCC3(F)F)cnn12` (centres unmarked) [Compound I-673] the value was under 0.1 µM. On to `CNc1cc(-c2cn(C3COC3)c3ncccc23)nc2c(C(=O)N[C@@H]3CCC3(F)F)cnn12` [Compound I-675], for which the IC50 was under 0.1 µM.

In turn, `CNc1cc(-c2cn(C3CN(C)C3)c3ncccc23)nc2c(C(=O)NC3CCC3(F)F)cnn12` (centres unmarked) [Compound I-676] displayed an IC50 of under 0.1 µM. `CNc1cc(-c2cn([C@H]3C[C@@H](O)C3)c3ncccc23)nc2c(C(=O)NC3CCC3(F)F)cnn12` (some centres unmarked) [Compound I-677]: the IC50 is under 0.1 µM.

The molecule `CNc1cc(-c2cn(C3CCCC3)c3ncccc23)nc2c(C(=O)NC3CCC3(F)F)cnn12` (centres unmarked) [Compound I-680] displayed an IC50 of under 0.1 µM. On the same count and under the same terms, for `CNc1cc(-c2cn(C3CCCC3)c3ncccc23)nc2c(C(=O)N[C@@H]3CCC3(F)F)cnn12` [Compound I-681] the value was under 0.1 µM; for `CNc1cc(-c2cn(C3CCCC3)c3ncccc23)nc2c(C(=O)NC3CCC3(F)F)cnn12` (centres unmarked) [Compound I-683], under 0.1 µM; for `CNc1cc(-c2cn(C3CCCC3)c3ncccc23)nc2c(C(=O)N[C@H]3CCC3(F)F)cnn12` [Compound I-685], under 0.1 µM. Molecule `CNc1cc(-c2cn([C@@H]3CCN(C)C3)c3ncccc23)nc2c(C(=O)NC3CCC3(F)F)cnn12` (some centres unmarked) [Compound I-686] came in with an IC50 of under 0.1 µM.

In turn, `CNc1cc(-c2cn([C@@H]3COC[C@H]3O)c3ncccc23)nc2c(C(=O)NC3CCC3(F)F)cnn12` (some centres unmarked) [Compound I-692] came in with an IC50 of under 0.1 µM. As to `CNc1cc(-c2cn([C@@H]3COC[C@H]3O)c3ncccc23)nc2c(C(=O)N[C@H]3CCC3(F)F)cnn12` [Compound I-693], the concentration for half-maximal inhibition (IC50) is under 0.1 µM. In turn, `CNc1cc(-c2cn([C@H]3COC[C@@H]3O)c3ncccc23)nc2c(C(=O)NC3CCC3(F)F)cnn12` (some centres unmarked) [Compound I-695] registered an IC50 of under 0.1 µM. As to `CNc1cc(-c2cn(C3CCOCC3)c3ncccc23)nc2c(C(=O)N[C@H]3CCC3(F)F)cnn12` [Compound I-699], the IC50 is under 0.1 µM. In turn, `CNc1cc(-c2cn([C@@H]3CCOC[C@@H]3OC)c3ncccc23)nc2c(C(=O)NC3CCC3(F)F)cnn12` (some centres unmarked) [Compound I-702] gave an IC50 of under 0.1 µM.

Regarding `CNc1cc(-c2cn([C@@H]3CCOC[C@@H]3OC)c3ncccc23)nc2c(C(=O)N[C@H]3CCC3(F)F)cnn12` [Compound I-703], the IC50 is under 0.1 µM. Still for that read-out and setting: for `CNc1cc(-c2cn([C@H]3CC3(F)F)c3ncccc23)nc2c(C(=O)NC3COC[C@H]3O)cnn12` (some centres unmarked) [Compound I-709] the value was 0.1 to 0.5 µM; for `CNc1cc(-c2cn([C@H]3CC3(F)F)c3ncccc23)nc2c(C(=O)N[C@@H]3COC[C@@H]3O)cnn12` [Compound I-711], under 0.1 µM.

`CNc1cc(-c2cn([C@@H]3CC3(F)F)c3ncccc23)nc2c(C(=O)N[C@@H]3COC[C@@H]3O)cnn12` [Compound I-713] returned an IC50 of 0.1 to 0.5 µM. For the molecule `CNc1cc(-c2cn([C@H]3CCC[C@H]3F)c3ncccc23)nc2c(C(=O)N[C@H]3COC[C@H]3O)cnn12` [Compound I-722], the IC50 is under 0.1 µM. In the case of `CNc1cc(-c2cn([C@H]3COC[C@H]3F)c3ncccc23)nc2c(C(=O)N[C@H]3COC[C@H]3O)cnn12` [Compound I-726], the IC50 is under 0.1 µM. `CNc1cc(-c2cn([C@@H]3COC[C@@H]3F)c3ncccc23)nc2c(C(=O)N[C@@H]3COC[C@@H]3O)cnn12` [Compound I-730]: the IC50 is 0.1 to 0.5 µM.

In turn, `CNc1cc(-c2cn([C@H]3COC[C@@H]3OC)c3ccccc23)nc2c(C(=O)NC3CC[C@@H]3OC)cnn12` (some centres unmarked) [Compound I-741] registered an IC50 of under 0.1 µM. `CNc1cc(-c2cn([C@H]3COC[C@@H]3OC)c3ccccc23)nc2c(C(=O)N[C@H]3CC[C@@H]3OC)cnn12` [Compound I-742] gave an IC50 of under 0.1 µM.

Consider `CNc1cc(-c2cn([C@@H]3COC[C@H]3OC)c3ccccc23)nc2c(C(=O)NC3CC[C@@H]3OC)cnn12` (some centres unmarked) [Compound I-744], for which the IC50 was under 0.1 µM. As for `CNc1cc(-c2cn([C@@H]3COC[C@H]3OC)c3ccccc23)nc2c(C(=O)N[C@@H]3CC[C@H]3OC)cnn12` [Compound I-746], the IC50 is under 0.1 µM. With `CO[C@@H]1CC[C@H]1NC(=O)c1cnn2c3c(c(Nc4cccn(C(C)C)c4=O)nc12)OCCN3` [Compound I-760], the IC50 was under 0.1 µM. `O=C(N[C@H]1CCC1(F)F)c1cnn2c3c(c(-c4cn([C@H]5C[C@H](O)C5)c5ncccc45)nc12)OCCN3` [Compound I-776] returned an IC50 of under 0.1 µM.

The molecule `CNc1cc(Nc2cccn([C@H]3C[C@@H](OC)C3)c2=O)nc2c(C(=O)NC3CC[C@@H]3OC)cnn12` (some centres unmarked) [Compound I-780] displayed an IC50 of under 0.1 µM. Turning to `CNc1ccc(-c2cc(NC)n3ncc(C(=O)N[C@H]4CC[C@H]4F)c3n2)n2ccnc12` [Compound I-784], the IC50 is under 0.1 µM.

On to `CNc1cc(-c2cn([C@@H]3COC[C@H]3OC)c3ccccc23)nc2c(C(=O)N[C@H]3CC[C@H]3O)cnn12` [Compound I-787], for which the IC50 is under 0.1 µM.

The molecule `CNc1cc(-c2cn([C@H]3COC[C@@H]3OC)c3ccccc23)nc2c(C(=O)N[C@H]3CC[C@H]3O)cnn12` [Compound I-790] registered a half-maximal inhibitory concentration (IC50) of under 0.1 µM. The molecule `CNc1cc(-c2cn([C@H]3[C@@H]4COC[C@@H]43)c3ncccc23)nc2c(C(=O)N[C@H]3CC[C@@H]3OC)cnn12` [Compound I-793, 5-(1-((1R,5S,6r)-3-oxabicyclo[3.1.0]hexan-6-yl)-1H-pyrrolo[2,3-b]pyridin-3-yl)-N-((1S,2S)-2-methoxycyclobutyl)-7-(methylamino)pyrazolo[1,5-a]pyrimidine-3-carboxamide] gave an IC50 of under 0.1 µM. `CNc1cc(-c2cn(CCOC)c3ncccc23)nc2c(C(=O)NC3CC[C@@H]3OC)cnn12` (some centres unmarked) [Compound I-795] came in with an IC50 of under 0.1 µM. `CNc1cc(-c2cn([C@H]3CCOC[C@H]3OC)c3ncccc23)nc2c(C(=O)N[C@H]3CC[C@@H]3F)cnn12` [Compound I-796] displayed an IC50 of under 0.1 µM. Regarding `CNc1cc(-c2cn([C@@H]3CCOC[C@@H]3OC)c3ncccc23)nc2c(C(=O)N[C@H]3CC[C@@H]3F)cnn12` [Compound I-798], the IC50 is under 0.1 µM. In the case of `CNc1cc(-c2cn([C@H]3CCOC[C@@H]3F)c3ncccc23)nc2c(C(=O)N[C@H]3CC[C@@H]3OC)cnn12` [Compound I-802], the IC50 is under 0.1 µM. Molecule `CNc1cc(-c2cn([C@@H]3CCOC[C@H]3F)c3ncccc23)nc2c(C(=O)N[C@H]3CC[C@@H]3OC)cnn12` [Compound I-804] showed an IC50 of under 0.1 µM. Same read-out and setting: the figure for `CNc1cc(-c2cn([C@@H]3CCC4(C3)OCCO4)c3ncccc23)nc2c(C(=O)N[C@H]3CC[C@@H]3OC)cnn12` [Compound I-806] is under 0.1 µM; for `CNc1cc(-c2cn([C@H]3CCC4(C3)OCCO4)c3ncccc23)nc2c(C(=O)N[C@H]3CC[C@@H]3OC)cnn12` [Compound I-808] it is under 0.1 µM. The molecule `CNc1cc(-c2cn([C@H]3CCOC[C@H]3OC)c3ncccc23)nc2c(C(=O)N[C@@H]3CCC3(F)F)cnn12` [Compound I-811] returned an IC50 of under 0.1 µM.

Still in this test, the particulars now being: 0.5 h, 1.7 ng/mL IL-12 for 30 minutes.
Take `CNc1cc(-c2cn([C@H]3CCOC[C@H]3OC)c3ncccc23)nc2c(C(=O)NC3CC[C@@H]3OC)cnn12` (stereo partly drawn) [Compound I-665, N-((trans-1,2)-2-Methoxycyclobutyl)-5-(1-((3S,4S)-3-methoxytetrahydro-2H-pyran-4-yl)-1H-pyrrolo[2,3-b]pyridin-3-yl)-7-(methylamino)pyrazolo[1,5-a]pyrimidine-3-carboxamide]: the IC50 is under 0.1 µM. Regarding `CNc1cc(-c2cn([C@H]3CCC[C@H]3F)c3ncccc23)nc2c(C(=O)NC3COC[C@H]3O)cnn12` (stereo partly drawn) [Compound I-721, 5-(1-((1S,2R)-2-Fluorocyclopentyl)-1H-pyrrolo[2,3-b]pyridin-3-yl)-N-((cis-3,4)-4-hydroxytetrahydrofuran-3-yl)-7-(methylamino)pyrazolo[1,5-a]pyrimidine-3-carboxamide], the 50% inhibitory concentration (IC50) was under 0.1 µM. For the molecule `O=C(NC1CCC1(F)F)c1cnn2c3c(c(-c4cn([C@H]5C[C@H](O)C5)c5ncccc45)nc12)OCCN3` (stereo partly drawn) [Compound I-775, N-(2,2-Difluorocyclobutyl)-5-(1-((1r,3S)-3-hydroxycyclobutyl)-1H-pyrrolo[2,3-b]pyridin-3-yl)-2,3-dihydro-1H-pyrazolo[5′,1′:2,3]pyrimido [5,4-b][1,4]oxazine-7-carboxamide], the half-inhibitory concentration (IC50) was under 0.1 µM. Consider `CNc1cc(-c2cn([C@H]3[C@@H]4COC[C@@H]43)c3ncccc23)nc2c(C(=O)NC3CC[C@@H]3OC)cnn12` (stereo partly drawn) [Compound I-792, 5-(1-((1R,5S,6r)-3-oxabicyclo[3.1.0]hexan-6-yl)-1H-pyrrolo[2,3-b]pyridin-3-yl)-N-((trans-1,2)-2-methoxycyclobutyl)-7-(methylamino)pyrazolo[1,5-a]pyrimidine-3-carboxamide], for which the IC50 was under 0.1 µM.
